Laboratory results from publication PMC9697446 (International Journal of Molecular Sciences, 2022).

How the values were obtained:
[1] = test system: Fe3+-induced LP in rat brain homogenate; experiment: Fe3+-induced lipid peroxidation in rat brain homogenate; assay type: biochemical; details: for IC50: LP induced by 0.5 mM Fe3+ in rat brain homogenate, mean ± SD, read-out: Inhibition of LP IC50; for Pro-oxidant activity in rat brain homogenate: 10 nM to 30 µM
Method: The influence of MB and its conjugates with indole derivatives on Fe^3+-induced lipid peroxidation (LP) in rat brain homogenate was studied over a broad concentration range (from 10 nM to 30 µM).
On the day of the experiment, adult Wistar male rats that fasted overnight were euthanized in a CO2 chamber, followed by decapitation. The procedure was in compliance with the Guidelines for Animal Experiments at the Institute of Physiologically Active Compounds of the Russian Academy of Sciences. The brains were rapidly removed and homogenized in 0.12 M HEPES/0.15M NaCl, pH 7.4 buffer (HBS) ([…]) and used immediately for the assay.
The protein concentrations in rat brain homogenate (RBH) were determined by the biuret assay using bovine serum albumin as the standard.
The effect of the compounds on LP of the RBH was studied at […] in 0.25 mL of RBH (2 mg of protein·mL^−1) in the presence of the compounds or the vehicle (DMSO). Lipid peroxidation was induced by Fe^3+ (0.5 mM Fe(NH4)(SO4)2) as an oxidant.
The reaction mixture was incubated for 30 min at 37 °C, then quenched by adding 0.4 mL of quench medium containing 250 mM HCl and 15% (w/v) trichloroacetic acid. The samples were then centrifuged for 10 min at 10,000× g, and 75 µL of the supernatant was transferred to a 96-well plate. Next, 75 µL of 0.8% (w/v) 2-thiobarbituric acid (TBA) was added. The plate was then sealed, heated at 95 °C for 15 min, cooled to 4 °C, and the absorbance at 530–620 nm was measured using a Wallac Victor 3 1420 Multilabel Counter (Perkin Elmer, Turku, Finland).
All the experiments were performed as four independent runs with different brain homogenate preparations and three repeated probes in each run. The average results for each run were normalized between the positive control with the vehicle and Fe^3+ and negative control with only the vehicle. They were presented as the IC50 ± SD values for the antioxidant activities of the compounds which were calculated using GraphPad Prism 7.00 software (San Diego, CA, USA).

[2] = target: T1, EeAChE (Electrophorus electricus, UniProt O42275); experiment: biochemical; details: means ± SEM (n = 3); read-out: EeAChE Inhibition, IC50
T1 construct: purchased Sigma-Aldrich type VI-S
Method: We selected AChE from electric eels (Electrophorus electricus) for consistency with our other reports and because of its purity, specific activity, and lower cost compared to human AChE [64].
(§1) AChE and BChE activities were measured via the Ellman method. The assay solution consisted of 0.1 M K/Na phosphate buffer pH 7.5, 25 °C with the addition of 0.33 mM DTNB, 0.02 unit/mL of AChE or BChE and 1 mM of substrate (ATCh or BTCh, respectively). The assays were carried out with a reagent blank containing all components (except AChE orBChE) in order to account for the non-enzymatic hydrolysis of the substrate. In addition, an enzyme blank was included that contained all components except substrate to account for non-substrate sulfhydryl groups.
(§2) The test compounds were dissolved in DMSO, and the incubation mixture contained 2% (v/v) of the solvent. Enzyme inhibition was first assessed at a single concentration of 20 µM for each compound after a 5 min incubation at 25 °C in three separate experiments. […] The test compounds were added to the assay solution and preincubated at 25 °C with the enzymes for 5 min, followed by the addition of substrate. A parallel control was made for the assay solution with no inhibitor. Measurements were performed with a FLUOStar Optima microplate reader (BMG Labtech, Ortenberg, Germany). Each experiment was performed in triplicate. The results were expressed as the mean ± SEM. The reaction rates in the presence and absence of the inhibitor were compared, and the percent of residual enzyme activity due to the presence of test compounds was calculated.
PIand donepezil were purchased from Sigma-Aldrich. […] As the source of the enzyme, electric eel (Elecrophorus electricus) AChE (EeAChE, type VI-S, lyophilized powder, Sigma-Aldrich, Saint Louis, MO, USA) was used. The applicability of this enzyme was shown earlier

[3] = test system: porcine liver CES; experiment: CES inhibition (4-nitrophenyl acetate hydrolysis); assay type: biochemical; details: ± SEM, n = 3;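 further: values are percent inhibition of CES activity not residual activity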
Method: (§3) The esterase profile was estimated using the human erythrocyteAChE, the equine serum BChE, and the porcine liver CES.
(§4) Human erythrocyte AChE, equine serum BChE, porcine liver CES, acetylthiocholine iodide (ATCh), butyrylthiocholine iodide (BTCh), 5,5′-dithio-bis-(2-nitrobenzoic acid) (DTNB), 4-nitrophenol acetate (4-NPA), and BNPP were purchased from Sigma-Aldrich (St. Louis, MO, USA).
The assay solution consisted of 0.1 M K/Na phosphate buffer pH 8.0, 25 °C, with the addition of 1 mM 4-nitrophenyl acetate and 0.02 unit/mL of CES. The assays were carried out with a blank containing all components, except CES.
as §2

[4] = target: T2, equine serum BChE (Equus caballus, UniProt P81908); experiment: biochemical; details: n = 3; for IC50: IC50 ± SEM
T2 construct: the equine serum BChE, and the porcine liver CES; purchased Sigma-Aldrich; host or cells: equine serum
Method: as §3, §4, §1, §2

[5] = target: T3, human erythrocyte AChE (Homo sapiens, UniProt P22303); experiment: biochemical; details: IC50 ± SEM, n = 3
T3 construct: The esterase profile was estimated using the human erythrocyteAChE; purchased Sigma-Aldrich; host or cells: human erythrocytes
Method: as §3, §4, §1, §2

T3 sequence (P22303 32-617 isoform P22303-2 limits assumed): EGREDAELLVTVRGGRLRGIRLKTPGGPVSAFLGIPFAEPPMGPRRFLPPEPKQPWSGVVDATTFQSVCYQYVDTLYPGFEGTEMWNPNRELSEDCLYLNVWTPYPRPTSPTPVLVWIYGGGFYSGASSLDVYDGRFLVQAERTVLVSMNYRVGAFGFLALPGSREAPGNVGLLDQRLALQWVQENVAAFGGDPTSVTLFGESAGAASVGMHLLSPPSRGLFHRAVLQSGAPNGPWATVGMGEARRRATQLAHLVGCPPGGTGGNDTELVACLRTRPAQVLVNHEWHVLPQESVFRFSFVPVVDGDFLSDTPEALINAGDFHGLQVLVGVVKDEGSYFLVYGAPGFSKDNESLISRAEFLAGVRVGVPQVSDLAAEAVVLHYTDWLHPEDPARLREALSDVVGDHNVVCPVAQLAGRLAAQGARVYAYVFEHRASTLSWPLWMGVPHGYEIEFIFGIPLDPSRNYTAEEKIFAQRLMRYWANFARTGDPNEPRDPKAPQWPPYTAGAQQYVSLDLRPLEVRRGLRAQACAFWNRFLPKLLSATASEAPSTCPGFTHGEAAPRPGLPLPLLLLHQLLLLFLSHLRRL
T1 sequence (O42275 24-633): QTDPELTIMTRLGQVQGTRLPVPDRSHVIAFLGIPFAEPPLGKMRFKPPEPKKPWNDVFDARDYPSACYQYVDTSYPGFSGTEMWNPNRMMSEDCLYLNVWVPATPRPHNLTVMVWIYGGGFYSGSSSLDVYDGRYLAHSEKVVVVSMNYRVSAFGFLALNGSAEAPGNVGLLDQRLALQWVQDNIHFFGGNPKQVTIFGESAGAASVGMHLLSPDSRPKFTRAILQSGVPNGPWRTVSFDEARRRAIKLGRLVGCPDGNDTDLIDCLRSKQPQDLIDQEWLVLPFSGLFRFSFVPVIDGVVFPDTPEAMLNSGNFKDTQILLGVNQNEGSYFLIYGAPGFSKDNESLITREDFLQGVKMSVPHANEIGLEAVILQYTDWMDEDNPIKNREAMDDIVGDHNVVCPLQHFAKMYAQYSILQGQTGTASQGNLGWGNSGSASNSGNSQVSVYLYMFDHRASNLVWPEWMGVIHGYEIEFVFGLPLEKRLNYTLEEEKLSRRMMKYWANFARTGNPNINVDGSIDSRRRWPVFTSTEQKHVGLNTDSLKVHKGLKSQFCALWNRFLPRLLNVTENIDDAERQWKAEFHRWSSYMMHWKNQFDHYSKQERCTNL
T2 sequence (P81908 whole entry): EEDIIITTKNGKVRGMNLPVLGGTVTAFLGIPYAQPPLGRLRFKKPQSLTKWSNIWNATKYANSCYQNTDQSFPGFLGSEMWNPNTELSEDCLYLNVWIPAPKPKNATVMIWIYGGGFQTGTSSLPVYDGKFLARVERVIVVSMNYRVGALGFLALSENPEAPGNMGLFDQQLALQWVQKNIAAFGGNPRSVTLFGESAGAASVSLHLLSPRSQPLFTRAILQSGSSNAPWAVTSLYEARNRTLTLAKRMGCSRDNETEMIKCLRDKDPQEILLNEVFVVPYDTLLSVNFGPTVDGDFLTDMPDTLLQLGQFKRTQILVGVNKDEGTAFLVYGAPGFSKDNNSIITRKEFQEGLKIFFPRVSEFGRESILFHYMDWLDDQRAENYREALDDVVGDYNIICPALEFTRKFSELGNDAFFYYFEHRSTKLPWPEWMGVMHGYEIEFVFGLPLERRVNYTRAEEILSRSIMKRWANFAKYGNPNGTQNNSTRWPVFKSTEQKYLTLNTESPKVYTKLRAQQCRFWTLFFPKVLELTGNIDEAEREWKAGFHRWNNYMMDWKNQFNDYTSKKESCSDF

| Compound | IC50 [1] [nM] | IC50 [2] [nM] | CES inhibition at 20 µM [3] [%] | IC50 [4] [µM] | IC50 [5] [µM] | Pro-oxidant activity in rat brain homogenate [1] | inhibition at 20 µM ([4]; 20 µM, ± SEM) [%] |
| --- | --- | --- | --- | --- | --- | --- | --- |
| CN(C)c1ccc2c(c1)Sc1cc(N(C)C)ccc1N2C(=O)CCn1c2c(c3cc(OC(F)(F)F)ccc31)CCCC2 [Compound 4h] | 460 ± 320 | 890 ± 90 | 3.1 ± 0.5 | 47.6 ± 4.59 | 6.89 ± 0.09 | – | – |
| Cc1ccc2c(c1)c1c(n2CCC(=O)N2c3ccc(N(C)C)cc3Sc3cc(N(C)C)ccc32)CCCCCC1 [Compound 4n] | 930 ± 680 | 950 ± 70 | 33.1 ± 3.1 | 15.6 ± 1.13 | 6.26 ± 0.01 | – | – |
| Cc1ccc2c(c1)c1c(n2CCC(=O)N2c3ccc(N(C)C)cc3Sc3cc(N(C)C)ccc32)CCCC1 [Compound 4c] | 780 ± 350 | 1220 ± 10 | 14.9 ± 1.3 | 41.4 ± 1.71 | 4.39 ± 0.26 | – | – |
| CN(C)c1ccc2nc3ccc(=[N+](C)C)cc-3sc2c1 [MB, Methylene blue, reference compound] | 1900 ± 500 | – | 12.3 ± 1.5 | 11.1 ± 0.12 | – | no pro-oxidant activity | – |
| CC1CCc2c(c3cc(OC(F)(F)F)ccc3n2CCC(=O)N2c3ccc(N(C)C)cc3Sc3cc(N(C)C)ccc32)C1 (stereo not shown) [Compound 4i] | 580 ± 260 | 410 ± 30 | 3.5 ± 0.4 | 6.07 ± 0.58 | 1.94 ± 0.09 | – | – |
| CN(C)c1ccc2c(c1)Sc1cc(N(C)C)ccc1N2C(=O)CCn1c2c(c3ccccc31)CCCCCC2 [Compound 4m] | 1520 ± 790 | 570 ± 20 | 13.0 ± 1.1 | 21.7 ± 0.51 | 2.98 ± 0.1 | – | – |
| CN(C)c1ccc2c(c1)Sc1cc(N(C)C)ccc1N2 [MBH2, reference compound] | 530 ± 230 | 280 ± 20 | 17.2 ± 1.8 | 10.1 ± 0.16 | 1.76 ± 0.09 | no pro-oxidant activity | – |
| COc1ccc2c(c1)c1c(n2CCC(=O)N2c3ccc(N(C)C)cc3Sc3cc(N(C)C)ccc32)CCC(C)C1 (stereo not shown) [Compound 4e] | 500 ± 360 | 1920 ± 140 | 15.0 ± 1.3 | – | 9.81 ± 0.18 | – | 22.9 ± 2 |
| CN(C)c1ccc2c(c1)Sc1cc(N(C)C)ccc1N2C(=O)CCn1c2c(c3ccccc31)CCCC2 [Compound 4b] | 1120 ± 630 | 2420 ± 180 | 22.6 ± 2.1 | 48.7 ± 2.09 | 12.3 ± 1.51 | – | – |
| CN(C)c1ccc2c(c1)Sc1cc(N(C)C)ccc1N2C(=O)CCn1c2c(c3cc(F)ccc31)CCCC2 [Compound 4f] | 600 ± 320 | 1110 ± 120 | 6.6 ± 0.7 | 18.4 ± 1.52 | 6.57 ± 0.57 | – | – |
| CN(C)c1ccc2c(c1)Sc1cc(N(C)C)ccc1N2C(=O)CCn1c2c(c3ccccc31)CCC2 [Compound 4a] | 1240 ± 720 | 2350 ± 230 | 19.4 ± 1.8 | 42.13 ± 0.41 | 11.1 ± 0.69 | – | – |
| CN(C)c1ccc2c(c1)Sc1cc(N(C)C)ccc1N2C(=O)CCn1c2c(c3ccccc31)CCCCC2 [Compound 4j] | 620 ± 370 | 2700 ± 90 | 11.3 ± 1.2 | 9.98 ± 0.86 | 10.7 ± 0.67 | – | – |
| COc1ccc2c(c1)c1c(n2CCC(=O)N2c3ccc(N(C)C)cc3Sc3cc(N(C)C)ccc32)CCCC1 [Compound 4d] | 1120 ± 620 | 2250 ± 70 | 17.3 ± 1.5 | 52.1 ± 2.7 | 10.5 ± 0.89 | – | – |
| Cc1ccc2c(c1)c1c(n2CCC(=O)N2c3ccc(N(C)C)cc3Sc3cc(N(C)C)ccc32)CCCCC1 [Compound 4k] | 820 ± 680 | 4120 ± 370 | 5.3 ± 0.6 | 22.2 ± 0.92 | 12.9 ± 0.53 | – | – |
